Measured values reported in US6969719B2, “Polycyclic guanine phosphodiesterase V inhibitors” (Schering Corporation, priority 2001, dated 2005).
Several values for one entry are separate records, joined by “and”; a condition that tells them apart may be missing. Identical values can stand only once.

Molecular target: PDE V (Homo sapiens, UniProt O76074)
Assay: PDE V isoenzyme inhibition (IC50)
Type: biochemical
Details: for IC50: concentration required to provide 50% inhibition of PDE V; for ratio of PDE VI IC50/PDE V IC50: enzyme selectivity, PDE V relative to PDE VI
Description: The compounds of the invention can be useful for inhibiting PDE V isoenzymes. Isoenzyme activities and isoenzyme selectivities for particular compounds can be evaluated in a number of ways.

SMILES | IC50 | ratio of PDE VI IC50/PDE V IC50
CCN1C(=O)c2c(nc(C=NO)n2Cc2ccc(O)c(Cl)c2)N2C[C@@H](Cc3ccccc3)N=C12 [Compound 11] | ≤ 5 nM | –
CCN1C(=O)c2c(nc(C(=O)OC)n2Cc2cc(Cl)c3c(c2)CCO3)N2C[C@@H](Cc3ccccc3)N=C12 [Compound 4] | ≤ 6 nM | –
CCN1C(=O)c2c(nc(OCc3ccccc3)n2Cc2ccc(O)c(Cl)c2)N2C[C@@H](Cc3ccccc3)N=C12 [Compound 13] | ≤ 5 nM | –
CCN1C(=O)c2c(nc(N[C@@H]3CCC[C@H]3O)n2Cc2ccc(OC)c(Br)c2)N2C1=NCC2C (stereo partly drawn) [Compound 56] | ≤ 5 nM | –
CCN1C(=O)c2c(nc(NC3CCCCC3)n2Cc2ccc(OC)c(Cl)c2)N2CCN=C12 [Compound 42] | ≤ 5 nM | –
CCN1C(=O)c2c(nc(NC3CCCC3)n2Cc2ccc(OC)c(Cl)c2)N2CCN=C12 [Compound 43] | ≤ 5 nM | –
CCN1C(=O)c2c(nc(NC3CCCCC3)n2Cc2ccc(O)c(Br)c2)N2C[C@@H](Cc3ccccc3)N=C12 [Compound 9] | ≤ 5 nM | –
CCN1C(=O)c2c(nc(NC3CCOCC3)n2Cc2ccc(O)c(C)c2)N2CCN=C12 [Compound 30] | ~52 nM | > 190
CCN1C(=O)c2c(nc(NC3CCCCC3)n2Cc2ccc(OC)c(Br)c2)N2CCN=C12 [Compound 14] | ≤ 5 nM | –
CCN1C(=O)c2c(nc(NC3CCCCC3)n2Cc2ccc(OC)c(Br)c2)N2C1=N[C@@H]1CCC[C@@H]12 [Compound 17] | ≤ 5 nM | –
CCN1C(=O)c2c(nc(Br)n2Cc2cc(Cl)c3c(c2)CCO3)N2C[C@@H](Cc3ccccc3)N=C12 [Compound 15] | ≤ 5 nM | –
CCN1C(=O)c2c(nc(NC3CCOCC3)n2Cc2cc(Cl)c3c(c2)CCO3)N2CCN=C12 [Compound 35] | ~18 nM | –
CCN1C(=O)c2c(nc(NC3CCOCC3)n2Cc2ccc(OC)c(Cl)c2)N2CCN=C12 [Compound 16] | ≤ 10 nM and ≤ 5 nM and ≤ 6 nM and ~1.5 nM | –
CCN1C(=O)c2c(nc(NC3CCSCC3)n2Cc2ccc(OC)c(Br)c2)N2CCN=C12 [Compound 58] | ≤ 5 nM | –
CCN1C(=O)c2c(nc(C#Cc3ccccc3)n2Cc2ccc(O)c(Cl)c2)N2C[C@@H](Cc3ccccc3)N=C12 [Compound 19] | ≤ 5 nM | –
CCOc1nc2c(n1Cc1ccc(O)c(Br)c1)C(=O)N(CC)C1=N[C@H](Cc3ccccc3F)CN12 [Compound 54] | ≤ 5 nM | –
CCN1C(=O)c2c(nc(N[C@@H]3CC[C@H](O)C3)n2Cc2ccc(OC)c(Br)c2)N2CCN=C12 [Compound 59] | ≤ 10 nM | –

SMILES | IC50 | ratio of PDE VI IC50/PDE V IC50
CCN1C(=O)c2c(nc(C(N)=O)n2Cc2cc(Cl)c3c(c2)CCO3)N2C[C@@H](Cc3ccccc3)N=C12 [Compound 10] | ≤ 5 nM | –
CCN1C(=O)c2c(nc(NC3CCOCC3)n2Cc2cc(Br)c3c(c2)CCO3)N2CCN=C12 [Compound 36] | ~18 nM | –
CCN1C(=O)c2c(nc(OC)n2Cc2ccc(OC)c(C#N)c2)N2C[C@@H](Cc3ccccc3)N=C12 [Compound 34] | ≤ 10 nM and ~10 nM | –
CCN1C(=O)c2c(ncn2Cc2cc(Cl)c3c(c2)CCO3)N2C[C@@H](Cc3ccccc3)N=C12 [Compound 6] | ≤ 5 nM | –
CCN1C(=O)c2c(nc(NC3CCCCC3)n2Cc2ccc(O)c(Br)c2)N2C1=N[C@@H]1CCC[C@@H]12 [Compound 12] | ≤ 5 nM | –
CCN1C(=O)c2c(nc(NC3CCOCC3)n2Cc2ccc(O)c(Cl)c2)N2CCN=C12 [Compound 2] | < 8 nM | > 600
CCN1C(=O)c2c(nc(NC3CCOCC3)n2Cc2ccc(O)c(Br)c2)N2CCN=C12 [Compound 1] | ≤ 10 nM | –
CCN1C(=O)c2c(nc(C#Cc3ccccc3)n2Cc2cc(Cl)c(OC)c(Cl)c2)N2CC3(CCCC3)N=C12 [Compound 44] | ≤ 5 nM | –
CCN1C(=O)c2c(nc(NC3CCOCC3)n2Cc2ccc(OC)c(Br)c2)N2CCCN=C12 [Compound 20] | ≤ 5 nM | –
CCN1C(=O)c2c(nc(NC3CCCCC3)n2Cc2ccc(O)c(Cl)c2)N2C1=N[C@@H]1CCC[C@@H]12 [Compound 5] | ≤ 6 nM | –
CCN1C(=O)c2nc(C#Cc3ccccc3)n(Cc3ccc(O)cc3)c2N2CC3(CCCC3)N=C12 [Compound 22] | ≤ 5 nM | –
CCN1C(=O)c2c(nc(Br)n2Cc2cc(Br)c3c(c2)CCO3)N2C[C@@H](Cc3ccccc3)N=C12 [Compound 3] | ≤ 10 nM | –
CCN1C(=O)c2c(nc(NC3CCOCC3)n2Cc2ccc(OC)c(Br)c2)N2CCN=C12 [Compound 18] | ≤ 5 nM | –
CCN1C(=O)c2c(nc(NC3CCOCC3)n2Cc2ccc(OC)c(Cl)c2)N2CCCN=C12 [Compound 21] | ≤ 10 nM | –
CCN1C(=O)c2c(nc(C(N)=O)n2Cc2cc(Br)c3c(c2)CCO3)N2C[C@@H](Cc3ccccc3)N=C12 [Compound 8] | ≤ 5 nM | –
CCN1C(=O)c2c(nc(NC3CCSCC3)n2Cc2ccc(OC)c(Cl)c2)N2CCN=C12 [Compound 57] | ≤ 10 nM | –
CCN1C(=O)c2nc(C#Cc3ccccc3)n(Cc3ccc(OC(C)=O)cc3)c2N2CC3(CCCC3)N=C12 [Compound 7] | ≤ 5 nM | –
